Several values for one entry are separate records, joined by “and”; a condition that tells them apart may be missing. Equal values may be shown once. Read-outs that look alike come from different tables or passages of the source.
Key:
[1] = hepatic microsomes, SIDM vs control
[2] = type: in vivo, rat; settings: for CL renal: plasma and urine, CLR; for bioavailability: oral, F (bioavailability), oral 20 mg/kg vs intravenous 10 mg/kg
[3] = system: P-glycoprotein (P-gp); settings: ref Hussa, 2014; cited from earlier work
[4] = intestinal microsomes
[5] = ref Lawendy et al., 2009; Dowty et al., 2014; cited from earlier work
[6] = Tissue distribution of tofacitinib 30 min after intravenous administration; type: in vivo, rat; settings: 30 min after intravenous 10 mg/kg, control and SIDM rats
[7] = type: in vivo, rat; settings: for AUC / clearance / MRT / half-life / Vd: plasma; for clearance: CL; for half-life: Terminal half-life; for Vd: VSS
[8] = Rat plasma protein binding by equilibrium dialysis; type: in vitro ADME; settings: fresh plasma, pH 7.4, Plasma protein binding, range over control and SIDM rats
[9] = intravenous 10 mg/kg, SIDM rats
[10] = intravenous 10 mg/kg, SIDM vs control
[11] = intravenous 10 mg/kg, control rats
[12] = rat, iv, 10 mg/kg, control rats

CLint faster in SIDM rats than control rats [1]: 112%
Km smaller in SIDM rats than control rats [1]: 44.3%
Ae0-24 h (dose excreted in urine for 24 h) ([2]; oral 20 mg/kg, SIDM rats): 6.94 ± 2.42 % of dose
AUC lower in SIDM rats than control rats ([2]; oral 20 mg/kg, SIDM vs control): 55.5%
CLR higher in SIDM rats than control rats ([2]; oral 20 mg/kg, SIDM vs control): 145%
Cmax lower in SIDM rats than control rats ([2]; oral 20 mg/kg, SIDM vs control): 61.1%
Decrease of F (bioavailability) in SIDM rats vs control rats ([2]; oral 20 mg/kg, SIDM vs control, 20 mg/kg): 33%
Ae0-24 h (dose excreted in urine for 24 h) ([2]; oral 20 mg/kg, control rats): 7.98 ± 1.34 % of dose
CL renal ([2]; rat, po, 20 mg/kg, oral 20 mg/kg, SIDM rats): 1.3 ± 0.894 L/h/kg
CL renal ([2]; rat, po, 20 mg/kg, oral 20 mg/kg, control rats): 0.532 ± 0.81 L/h/kg
bioavailability ([2]; rat, plasma, 20 mg/kg, SIDM rats): 23.8%
bioavailability ([2]; rat, plasma, 20 mg/kg, control rats): 35.5%
AUC ([2]; rat, plasma, po, 20 mg/kg, oral 20 mg/kg, SIDM rats (n=7)): 1.35 µg·h/mL
AUC ([2]; rat, plasma, po, 20 mg/kg, oral 20 mg/kg, control rats (n=8)): 3.03 µg·h/mL
Cmax ([2]; rat, plasma, po, 20 mg/kg, Cmax, oral 20 mg/kg, SIDM rats): 0.68 ± 0.36 µg/mL
Tmax ([2]; rat, plasma, po, 20 mg/kg, oral 20 mg/kg, SIDM rats): 25.7 min
Tmax ([2]; rat, plasma, po, 20 mg/kg, oral 20 mg/kg, control rats): 17.9 min
Km, SIDM vs control rats [4]: comparable
CLint faster in SIDM rats than control rats ([4]; SIDM vs control): 35.4%
Tissue distribution [6]: widely distributed
Ae0-24 h (dose excreted in urine for 24 h) [7, 9]: 6.64 ± 1.65 % of dose
CLNR [7, 9]: 3.33 ± 0.587 L/h/kg
CLR estimated from the free (unbound to plasma proteins) fraction [7, 9]: 0.369 L/h/kg
Contribution of CLR to CL [7, 9]: 7.97%
AUC smaller in SIDM rats than control rats [7, 10]: 33.6%
CL higher in SIDM rats than control rats [7, 10]: 51.1%
CLNR higher in SIDM rats than control rats [7, 10]: 43.8%
CLR higher in SIDM rats than control rats [7, 10]: 87.5%
Vss greater in SIDM rats than control rats [7, 10]: 262%
Ae0-24 h (dose excreted in urine for 24 h) [7, 11]: 6.99 ± 2.30 % of dose
CLNR [7, 11]: 2.32 ± 0.482 L/h/kg
CLR estimated from the free (unbound to plasma proteins) fraction [7, 11]: 0.2 L/h/kg
Contribution of CLR to CL [7, 11]: 6.42%
CL renal ([7]; rat, plasma and urine, iv, 10 mg/kg, CLR, control rats): 0.154 ± 0.0354 L/h/kg
AUC ([7]; rat, iv, 10 mg/kg, SIDM rats (n=7)): 2.83 µg·h/mL
AUC ([7]; rat, iv, 10 mg/kg, control rats (n=9)): 4.27 µg·h/mL
clearance ([7]; rat, iv, 10 mg/kg, SIDM rats): 3.62 ± 0.666 L/h/kg
clearance [7, 12]: 2.39 ± 0.404 L/h/kg
MRT ([7]; rat, iv, 10 mg/kg, SIDM rats): 44.3 min
MRT [7, 12]: 21.3 min
half-life ([7]; rat, iv, 10 mg/kg, SIDM rats): 26.5 ± 2.81 min
half-life [7, 12]: 30.2 ± 4.83 min
Vd ([7]; rat, iv, 10 mg/kg, SIDM rats): 3.56 ± 2.38 L/kg
Vd [7, 12]: 0.986 ± 0.379 L/kg
fraction unbound at 24 h, 10 µg/mL [8]: 0.769 to 0.781
Compound: C[C@@H]1CCN(C(=O)CC#N)C[C@@H]1N(C)c1ncnc2[nH]ccc12 [tofacitinib, 3-[(3R,4R)-4-methyl-3-[methyl-(7H-pyrrolo[2,3-day]pyrimidin-4-yl)amino]piperidin-1-yl]-3-oxopropanenitrile]
GI24 h (dose remaining in the gastrointestinal tract at 24 h) ([2]; oral 20 mg/kg, SIDM rats, 20 mg/kg): 0.238 % of dose and 0.238 ± 0.160 % of dose
GI24 h (dose remaining in the gastrointestinal tract at 24 h) ([2]; oral 20 mg/kg, control rats, 20 mg/kg): 0.177 % of dose and 0.177 ± 0.123 % of dose
P-glycoprotein (P-gp) substrate status [3]: substrate of P-glycoprotein
Terminal half-life [5]: approximately 3.3 h

Source: paper PMC7327145 (Biomolecules & Therapeutics, 2020)
